19 compounds from patent publication US20240408065A1, “CYANO COMPOUND, AND PREPARATION METHOD THEREFOR AND USE THEREOF” (SHANGHAI INSTITUTE OF MATERIA MEDICA, CHINESE ACADEMY OF …, priority 2021, published 2024) can be followed below.

Values joined by “and” are separate entries in the source; they are usually repeats but may differ in a detail not shown here. Equal values may be shown once. Some results are limits rather than exact numbers.

The target of one data set is T1, SARS-CoV-2 3CLpro (Severe acute respiratory syndrome coronavirus 2, UniProt P0DTD1).
T1 construct: The SARS-CoV-2 3CL^pro protease and different concentrations of the compounds were added to a 96-well plate
The experiment in a line: biochemical. The note with it: protease 30 nM, substrate 20 μM.

The nature of a further data set: in vitro. The following applies: African green monkey.
Data set [1] relates to SARS-CoV-2 B.1.351 strain. The data set is described as follows: microbe, parasite or virus in culture. The note with it: Severe acute respiratory syndrome coronavirus 2, Vero C1008, 24 h.
For data set [2], the system named is SARS-CoV-2 Omicron strain (B.1.1.529). The data set is described as follows: microbe, parasite or virus in culture. The following applies: Severe acute respiratory syndrome coronavirus 2, Vero C1008.
For data set [3] the following is noted: cynomolgus monkey, in vivo.
Another data set relates to SARS-CoV-2 delta strain. The note with it: mouse, in vivo.
Data set [4] deals with 47 safety-related targets. The note with it: read-out: ECo on 47 safety-related targets.
From the text: For the 78 tests related to the 47 safe targets, the experimental methods used include: cAMP assay, calcium flux assay, hormone nuclear receptor assay, kinase binding assay, enzyme activity assay, neurotransmitter transporter assay, ion channel assay, and transporter assay.

Method for in vitro: In the cytotoxicity test, Vero E6 cells were digested and placed in a culture medium (90% DMEM, 10% fetal bovine serum), inoculated into a 96-well plate at 20000 cells per well, and cultured overnight. The compound to be tested was dissolved in DMSO to prepare a 40 mM stock solution, and further serially diluted with a culture medium or a culture medium containing 0.5 μM Pgp inhibitor to obtain the concentration required for the test.

`CC(C)(C)[C@H](NC(=O)C(F)(F)F)C(=O)N1CC2(C[C@H]1C(=O)N[C@H](C#N)C[C@@H]1CCNC1=O)OCCO2` [Compound 18] displayed an IC50 against SARS-CoV-2 3CLpro of less than 100 nM.

Compound `CC(C)(C)[C@H](NC(=O)c1cc(C(F)(F)F)cc(C(F)(F)F)c1)C(=O)N1CC2(C[C@H]1C(=O)N[C@H](C#N)C[C@@H]1CCNC1=O)SCCS2` [Compound 9] gave an IC50 against SARS-CoV-2 3CLpro of 1000 to 10000 nM.

On SARS-CoV-2 3CLpro, `CC(=O)N[C@H](C(=O)N1CC2(C[C@H]1C(=O)N[C@H](C#N)C[C@@H]1CCNC1=O)SCCS2)C(C)(C)C` [Compound 3] registered an IC50 of less than 100 nM.

The compound `Cc1cc(C)cc(C(=O)N[C@H](C(=O)N2CC3(C[C@H]2C(=O)N[C@H](C#N)C[C@@H]2CCNC2=O)SCCS3)C(C)(C)C)c1` [Compound 10] displayed an IC50 on SARS-CoV-2 3CLpro of 1000 to 10000 nM.

At SARS-CoV-2 3CLpro, `CC(C)(C)[C@H](NC(=O)C(F)(F)C(F)(F)F)C(=O)N1CC2(C[C@H]1C(=O)N[C@H](C#N)C[C@@H]1CCCNC1=O)SCCS2` [Compound 22] yielded a 50% inhibitory concentration (IC50) of less than 100 nM.

`CC(C)(C)[C@H](NC(=O)C(F)(F)C(F)(F)F)C(=O)N1CC2(C[C@H]1C(=O)N[C@H](C#N)C[C@@H]1CCNC1=O)SCCS2` [Compound 13] had an IC50 at SARS-CoV-2 3CLpro of less than 100 nM.

Turning to `CC(C)(C)[C@H](NC(=O)CC(F)(F)F)C(=O)N1CC2(C[C@H]1C(=O)N[C@H](C#N)C[C@@H]1CCNC1=O)SCCS2` [Compound 11], the IC50 against SARS-CoV-2 3CLpro was in the range of 100 to 1000 nM.

For `CC(C)(C)OC(=O)N[C@H](C(=O)N1CC2(C[C@H]1C(=O)N[C@H](C#N)C[C@@H]1CCNC1=O)SCCS2)C(C)(C)C` [Compound 1], the half-inhibitory concentration (IC50) on SARS-CoV-2 3CLpro is less than 100 nM.

In the case of `COC(=O)N[C@H](C(=O)N1CC2(C[C@H]1C(=O)N[C@H](C#N)C[C@@H]1CCNC1=O)SCCS2)C(C)(C)C` [Compound 6], the half-inhibitory concentration (IC50) at SARS-CoV-2 3CLpro is 100 to 1000 nM.

Compound `CC(C)(C)[C@H](NC(=O)c1ccccc1)C(=O)N1CC2(C[C@H]1C(=O)N[C@H](C#N)C[C@@H]1CCNC1=O)SCCS2` [Compound 8] had an IC50 at SARS-CoV-2 3CLpro of 1000 to 10000 nM.

Consider `CC(C)(C)[C@H](NC(=O)C1CC1)C(=O)N1CC2(C[C@H]1C(=O)N[C@H](C#N)C[C@@H]1CCNC1=O)SCCS2` [Compound 4], for which the half-inhibitory concentration (IC50) on SARS-CoV-2 3CLpro is less than 100 nM.

On SARS-CoV-2 3CLpro, `CC(C)(C)[C@H](NC(=O)c1c(F)c(F)c(F)c(F)c1F)C(=O)N1CC2(C[C@H]1C(=O)N[C@H](C#N)C[C@@H]1CCNC1=O)SCCS2` [Compound 20] returned an IC50 of 100 to 1000 nM.

In turn, `N#C[C@H](C[C@@H]1CCNC1=O)NC(=O)[C@@H]1CC2(CN1C(=O)[C@@H](NC(=O)C(F)(F)F)C13CC4CC(CC(C4)C1)C3)SCCS2` [Compound 23] displayed an IC50 on SARS-CoV-2 3CLpro of less than 100 nM.

Consider `N#C[C@H](C[C@@H]1CCNC1=O)NC(=O)[C@@H]1CC2(CN1C(=O)[C@@H](NC(=O)C1(F)CC1)C1CCCC1)SCCS2` [Compound 21], for which, on SARS-CoV-2 3CLpro, the IC50 was less than 100 nM.

`CC(C)(C)[C@H](NC(=O)C(F)(F)F)C(=O)N1C[C@H](Sc2ccccc2)C[C@H]1C(=O)N[C@H](C#N)C[C@@H]1CCNC1=O` [Compound 19] registered an IC50 against SARS-CoV-2 3CLpro of 1000 to 10000 nM.

Compound `CC(C)(C)[C@H](NS(=O)(=O)c1ccccc1)C(=O)N1CC2(C[C@H]1C(=O)N[C@H](C#N)C[C@@H]1CCNC1=O)SCCS2` [Compound 17] came in with an IC50 at SARS-CoV-2 3CLpro of 1000 to 10000 nM.

`CC(C)(C)[C@H](NC(=O)c1cccnc1)C(=O)N1CC2(C[C@H]1C(=O)N[C@H](C#N)C[C@@H]1CCNC1=O)SCCS2` [Compound 12] showed a half-maximal inhibitory concentration (IC50) at SARS-CoV-2 3CLpro of 1000 to 10000 nM.

With `CC(C)(C)[C@H](NC(=O)C(F)(F)F)C(=O)N1CC2(C[C@H]1C(=O)N[C@H](C#N)C[C@@H]1CCNC1=O)SCCS2` [Compound 2], the CC50 in the data set “in vitro” is more than 500000 nM. Also, the EC50 in data set [1] is 730 nM. Half-maximal inhibition in data set [2] (IC50) required 120 nM. Moreover, in data set [3], the arrhythmia result is reported as “no arrhythmia related to the test product”, the “change in the cardiovascular system” value is “no change in the cardiovascular system related to the test product” and the “changes in ECG parameters or blood pressure” value is “no changes in ECG parameters or blood pressure related to the test product”. In the data set with SARS-CoV-2 delta strain, the “Viral load, brain tissue, Day 2” value was 0.77 ± 0.20 log10 copies/mg and 1.04 ± 0.24 log10 copies/mg; the “Viral load, lung tissue, Day 4” value is 7.88 ± 0.74 log10 copies/g and 7.48 ± 0.63 log10 copies/g; the “body weight of the mice” value was “did not decrease significantly”; the “decrease of virus copy number in the lung compared with the model group” value came to 2.4 log 10 copies/g. Further, in the data set with SARS-CoV-2 delta strain, the “decrease of virus titer in the lung compared with the model group” value is given as “more than 3 log 10 PFU/g”, the “effect on virus titer in the lung” value is “sustained inhibitory effect”, the “histopathological analysis of the lung” value is listed as “significantly improved lung damage” and the “virus titer in the brain (plaque test)” value is recorded as “no virus titer was determined”. The “virus titer in the lung (plaque test)” value with SARS-CoV-2 delta strain is given as “no titer was detected”. For the same compound, in data set [4], the EC50 is more than 100000 nM.

In the case of `N#C[C@H](C[C@@H]1CCNC1=O)NC(=O)[C@@H]1CC2(CN1C(=O)[C@@H](NC(=O)C(F)(F)F)C1CCCC1)SCCS2` [Compound 14], at SARS-CoV-2 3CLpro, the IC50 is less than 100 nM.

One may read the IC50 as the concentration at which inhibition is half-maximal.
